For 68 compounds, inhibition and EC50 results are on record in patent US20120053148A1, “INHIBITORS OF HEPATITIS C VIRUS” (GILEAD SCIENCES, INC., priority 2010, published 2012).

In one experiment the test system is HCV Replicon IB. The experiment is described as follows: HCV replicon assay in Huh-7 cells, genotype 1b (Rluc luciferase readout). The format is cell-based, hepatitis C virus. Particulars: Hepatitis C virus, 72 h; 10 uM; 1b-Rluc replicon, Huh-7 cells, 3 days; read-out: Inhibition @ 10 uM in 1b-Rluc. In general terms: A replicon is a self-replicating genome or part of one, used to study replication in cells.
As for `Cc1cc(C(=O)NCc2ccccn2)nc2c(C(F)(F)F)cc(C(C)C)cc12` [Compound 157], the inhibition at 10 µM was determined as 98.8%. With `N#Cc1cc(C(=O)NCc2ccccn2)nc2c(C(F)(F)F)cc(C3CC3)cc12` [Compound 215], the inhibition at 10 µM worked out at 99.4%. In the case of `Cc1cc(C(=O)NCc2ccccn2)nc2c(C(F)(F)F)cc(OC3CCCC3)cc12` [Compound 184], the inhibition at 10 µM was 96%. For `Cc1cc(C(=O)NCCC2CCCCN2)nc2c(C(F)(F)F)cc(C3CC3)cc12` (centres unmarked) [Compound 124], the inhibition at 10 µM was 99.2%. `Cc1cc(C(=O)NCc2ccccn2)nc2c(C(F)(F)F)cc(C#CC3CC3)cc12` [Compound 147]: the inhibition at 10 µM was 94.1%. `COc1cc(C(F)(F)F)c2nc(-c3nnc(NCC(=O)N(C)C)o3)cc(C)c2c1` [Compound 279]: the inhibition at 10 µM turned out to be 98.4%. `O=C(NCc1ccccn1)c1cc(Cl)c2cc(OC(F)(F)F)cc(Br)c2n1` [Compound 236]: the inhibition at 10 µM worked out at 86.4%. The same measure, in the same setting: for `Cc1cc(C(=O)NCC2(C)OCCO2)nc2c(C(F)(F)F)cc(C3CC3)cc12` [Compound 98] the value was 98.1%; for `Cc1cc(-c2nnc(NCC3OCCO3)o2)nc2c(C(F)(F)F)cc(C3CC3)cc12` [Compound 246], 100%. Still for that read-out and setting: for `COCCCNc1nnc(-c2cc(C)c3cc(OC)cc(C(F)(F)F)c3n2)o1` [Compound 274] the value was 99.4%; for `COCCCNc1nnc(-c2cc(C)c3cc(C4CC4)cc(C(F)(F)F)c3n2)o1` [Compound 245], 100%. On the same count and under the same terms, for `Cc1cc(C(=O)NCC2OCCCO2)nc2c(C(F)(F)F)cc(C3CC3)cc12` [Compound 82] the value was 100%; for `CCCCN(C)c1cc(C(F)(F)F)c2nc(C(=O)NCc3ccccn3)cc(C)c2c1` [Compound 176], 80.4%; for `Cc1cc(C(=O)NCc2ccccn2)nc2c(C(F)(F)F)cc(C3OC3(C)C)cc12` (centres unmarked) [Compound 141], 94.8%. For the compound `Cc1cc(C(=O)NCc2ccccn2)nc2c(C(C)(C)C)cc(C3CC3)cc12` [Compound 226], the inhibition at 10 µM stood at 100%. On to `CCOCCNc1nnc(-c2cc(C)c3cc(OC)cc(C(F)(F)F)c3n2)o1` [Compound 276], for which the inhibition at 10 µM was determined as 97.6%.

Take `Cc1cc(-c2nnc(NCC(=O)N(C)C)o2)nc2c(C(F)(F)F)cc(C3CC3)cc12` [Compound 248]: the inhibition at 10 µM was found to be 99.9%. As to `Cc1cc(C(=O)NC[C@@H]2CC(F)(F)CCN2)nc2c(C(F)(F)F)cc(C3CC3)cc12` [Compound 132], the inhibition at 10 µM came to 100%. For `COC1CN[C@H](CNC(=O)c2cc(C)c3cc(C4CC4)cc(C(F)(F)F)c3n2)C1` (single isomer, unassigned) [Compound 127], the inhibition at 10 µM was determined as 99.7%.

Turning to `N#Cc1cc(-c2nnc(Nc3ccccc3)o2)nc2c(C(F)(F)F)cc(-c3ccccc3)cc12` [Compound 175], the inhibition at 10 µM is 89.3%.

`Cc1cc(C(=O)NCC2(O)CC2)nc2c(C(F)(F)F)cc(-c3ccccc3)cc12` [Compound 163]: the inhibition at 10 µM amounted to 98.3%. In the case of `Cc1cc(C(=O)NCC2CCCCN2)nc2c(C(F)(F)F)cc(C3CC3)cc12` (centres unmarked) [Compound 108], the inhibition at 10 µM was determined as 96.5%.

As to `Cc1cc(-c2nnc(NC[C@@H](O)CO)s2)nc2c(C(F)(F)F)cc(C3CC3)cc12` [Compound 303], the inhibition at 10 µM is 98.2%. With `Nc1cc(C(=O)NCC2COCCN2)nc2c(C(F)(F)F)cc(C3CC3)cc12` (centres unmarked) [Compound 218], the inhibition at 10 µM is 99.9%.

Regarding `O=C(NCc1ccccn1)c1cc(O)c2cc(OC(F)(F)F)cc(-c3cccc4[nH]ncc34)c2n1` [Compound 239], the inhibition at 10 µM came out at 49.3%. With `COCCCNc1nnc(-c2cc(C)c3cc(C4CC4)cc(C(F)(F)F)c3n2)s1` [Compound 290], the inhibition at 10 µM stood at 99.9%.

On to `CC(C)(C)c1cc(C2CC2)cc2c(Cl)cc(C(=O)NCc3ccccn3)nc12` [Compound 229], for which the inhibition at 10 µM amounted to 100%. As for `Cc1cc(C(=O)NCC2CCCCN2)nc2c(C(F)(F)F)cc(C3CCCC3)cc12` (centres unmarked) [Compound 151], the inhibition at 10 µM amounted to 99.6%. Regarding `Cc1cc(C(=O)NCCCN2CCOCC2)nc2c(C(F)(F)F)cc(C3CC3)cc12` [Compound 122], the inhibition at 10 µM is 97.2%. Take `COCCCNC(=O)CNC(=O)c1cc(C)c2cc(C3CC3)cc(C(F)(F)F)c2n1` [Compound 118]: the inhibition at 10 µM came out at 84.5%. Consider `Cc1cc(-c2nnc(NCC3COCCO3)o2)nc2c(C(F)(F)F)cc(C3CC3)cc12` (centres unmarked) [Compound 250], for which the inhibition at 10 µM stood at 99.9%. As for `Cc1cc(C(=O)NC[C@H]2CCCO2)nc2c(C(F)(F)F)cc(C3CC3)cc12` [Compound 92], the inhibition at 10 µM turned out to be 100%.

For `C#Cc1cc(OC(F)(F)F)cc2c(Cl)cc(C(=O)NCc3ccccn3)nc12` [Compound 238], the inhibition at 10 µM stood at 9.91%. `Cc1cc(C(=O)NCCO)nc2c(C(F)(F)F)cc(-c3ccccc3)cc12` [Compound 166]: the inhibition at 10 µM was 93.8%. Regarding `Cc1cc(C(=O)NCc2ccccn2)nc2c(C(F)(F)F)cc(C#CC(C)(C)C)cc12` [Compound 145], the inhibition at 10 µM was found to be 72%. For `O=C(NCC1CS(=O)(=O)CCN1)c1cc(Cl)c2cc(OC(F)F)cc(C(F)(F)F)c2n1` (centres unmarked) [Compound 197], the inhibition at 10 µM amounted to 92.8%. Take `COCCNC(=O)CNC(=O)c1cc(C)c2cc(C3CC3)cc(C(F)(F)F)c2n1` [Compound 117]: the inhibition at 10 µM was found to be 94.7%. Turning to `Cc1cc(C(=O)NCc2cc(C(F)(F)F)ccn2)nc2c(C(F)(F)F)cc(C3CC3)cc12` [Compound 86], the inhibition at 10 µM amounted to 100%. Take `Cc1cc(-c2nnc(NCCCO)o2)nc2c(C(C)(C)C)cc(C3CC3)cc12` [Compound 282]: the inhibition at 10 µM was 99.9%.

The experiment is the same for the next values; noted with them: Hepatitis C virus, Huh-7, 72 h, HCV1B replicon, Huh-7 cells, 3 days; read-out: EC50_HCV1B_.
Consider `Cc1cc(C(=O)NCc2cnccn2)nc2c(-c3ccccc3)cc(C3CC3)cc12` [Compound 549], for which the EC50 was found to be 0.0655 µM. With `Cc1cc(-c2nnc(NCC3OCCO3)o2)nc2c(C(C)(C)C)cc(OCC(F)(F)F)cc12` [Compound 448], the EC50 came to 0.00157 µM. For `Cc1cc(-c2nnc(N[C@H]3CC[C@](O)(CF)C3)o2)nc2c(C(C)(C)C)cc(OCC(F)(F)F)cc12` [Compound 491], the EC50 worked out at 0.00057 µM. With `Cc1cc(-c2nnc(Nc3ccccn3)o2)nc2c(C(C)(C)C)cc(C3CC3)cc12` [Compound 402], the EC50 was 0.00286 µM. In the case of `CC(C)(C)c1cc(C2CC2)cc2c(N)cc(C(=O)NCc3cnccn3)nc12` [Compound 320], the EC50 amounted to 0.0017 µM. Still for that read-out and setting: with `CC(C)(C)c1cc(C2CC2)cc2c(N)cc(-c3nnc(NCC4CCCCO4)o3)nc12` (centres unmarked) [Compound 354] the figure was 0.0153 µM.

Consider `Cc1cc(-c2nnc(NCC3OCCO3)o2)nc2c(C(C)(C)C)cc(OC(F)F)cc12` [Compound 524], for which the EC50 came out at 0.00125 µM.

With `CC(C)(C)c1cc(C2CC2)cc2c(N)cc(C(=O)NC[C@H]3CS(=O)(=O)CCN3)nc12` [Compound 335], the EC50 was determined as 0.00302 µM. Turning to `CC(C)(C)c1cc(C2CC2)cc2c(N)cc(C(=O)NCC3COC3)nc12` [Compound 337], the EC50 stood at 0.0696 µM. Same read-out and setting: for `Cc1cc(-c2nnc(NCCCO)s2)nc2c(C(C)(C)C)cc(C3CC3)cc12` [Compound 380] the value was 0.0127 µM. For the compound `Cc1cc(-c2nnc(N[C@H]3C[C@@](C)(O)C3)o2)nc2c(C(C)(C)C)cc(OC(F)F)cc12` [Compound 525], the EC50 amounted to 0.00074 µM. On the same count and under the same terms, with `Cc1cc(-c2nnc(NCC3OCCO3)o2)nc2c(OC(F)(F)F)cc(OCC(F)(F)F)cc12` [Compound 539] the figure was 0.00412 µM; with `Cc1cc(-c2nnc(NC3CCC(O)(CF)C3)o2)nc2c(C(C)(C)C)cc(OCC(F)(F)F)cc12` (centres unmarked) [Compound 489], 0.0267 µM. Same read-out and setting: with `Cc1cc(-c2nnc(N[C@@H]3CCOC3)o2)nc2c(C(C)(C)C)cc(C3CC3)cc12` [Compound 405] the figure was 0.00525 µM; with `Cc1cc(-c2nnc(NC3CC(C)(OCS(C)(=O)=O)C3)o2)nc2c(C(C)(C)C)cc(OCC(F)(F)F)cc12` (centres unmarked) [Compound 495], 0.0384 µM. For the compound `Cc1cc(-c2nnc(NCC3OCCO3)o2)nc2c(C(C)(C)C)cc(OCC3OCCO3)cc12` [Compound 533], the EC50 amounted to 0.306 µM. The same measure, in the same setting: with `Cc1cc(-c2nnc(N[C@H]3C[C@@H](O)C3)o2)nc2c(C(C)(C)C)cc(OCC(F)(F)F)cc12` [Compound 462] the figure was 0.00154 µM; with `Cc1cc(C(=O)NC[C@@H]2CC3(CN2)OCCO3)nc2c(C(F)(F)F)cc(OCC(F)(F)F)cc12` [Compound 511], 0.0323 µM; with `CCCCNc1nnc(-c2cc(N)c3cc(C4CC4)cc(C(C)(C)C)c3n2)o1` [Compound 344], 0.011 µM. Same read-out and setting: with `Cc1cc(-c2nnc(Nc3cccnc3)s2)nc2c(C(C)(C)C)cc(OCC(F)(F)F)cc12` [Compound 519] the figure was 0.0211 µM; with `CCC(C)(O)c1cc(C2CC2)cc2c(C)cc(-c3nnc(NCC4OCCO4)o3)nc12` (centres unmarked) [Compound 543], 0.155 µM.

`Cc1cc(-c2nnc(Nc3cn[nH]c3)s2)nc2c(C(C)(C)C)cc(C3CC3)cc12` [Compound 382]: the EC50 was 0.0142 µM.

For the compound `CO[C@H]1CN[C@H](CNC(=O)c2cc(C)c3cc(C4CC4)cc(C(C)(C)C)c3n2)C1` [Compound 425], the EC50 is 0.0124 µM.

Regarding `Cc1cc(-c2nnc(NCC3CC(F)(F)CN3)s2)nc2c(C(C)(C)C)cc(C3CC3)cc12` (centres unmarked) [Compound 381], the EC50 came to 2.93 µM.

As to `Cc1cc(-c2nnc(NC3CCOCC3)o2)nc2c(C(C)(C)C)cc(OCC(F)(F)F)cc12` [Compound 488], the EC50 is 0.00682 µM.

Take `Cc1cc(-c2nnc(NC3CNCC3O)o2)nc2c(C(C)(C)C)cc(C3CC3)cc12` (centres unmarked) [Compound 396]: the EC50 was 1.11 µM. Regarding `Cc1cc(-c2nnc(N[C@H]3C[C@@](C)(O)C3)o2)nc2c(C(C)(C)C)cc(C3CC3)cc12` [Compound 423], the EC50 is 0.00135 µM.

Still in this experiment, the particulars now being: Hepatitis C virus, Huh-7, 72 h; read-out: EC50_HCV1B_.
On to `Cc1cc(-c2nnc(N[C@H]3C[C@@H](O)C3)o2)nc2c(C(C)(C)C)cc(OCC(C)(C)O)cc12` [Compound 536], for which the EC50 came to 0.0314 µM. For `Cc1cc(-c2nnc(NCC3OCCO3)o2)nc2c(C(C)(C)C)cc(OCC3CC3)cc12` [Compound 532], the EC50 came out at 0.0412 µM.

What is called inhibition is the drop in the measured response relative to a control, in per cent.
